Results on 17 compounds are retold here after ChEMBL document CHEMBL3991601, “The target landscape of clinical kinase drugs” (Science, 2017).

In assay [1] the target is Mitogen-activated protein kinase kinase kinase kinase 4 (Homo sapiens, UniProt O95819).
Assay [2] concerns the target T1, ATP-dependent RNA helicase DDX1 (Homo sapiens, UniProt Q92499).
T1 sequence (Q92499 whole entry): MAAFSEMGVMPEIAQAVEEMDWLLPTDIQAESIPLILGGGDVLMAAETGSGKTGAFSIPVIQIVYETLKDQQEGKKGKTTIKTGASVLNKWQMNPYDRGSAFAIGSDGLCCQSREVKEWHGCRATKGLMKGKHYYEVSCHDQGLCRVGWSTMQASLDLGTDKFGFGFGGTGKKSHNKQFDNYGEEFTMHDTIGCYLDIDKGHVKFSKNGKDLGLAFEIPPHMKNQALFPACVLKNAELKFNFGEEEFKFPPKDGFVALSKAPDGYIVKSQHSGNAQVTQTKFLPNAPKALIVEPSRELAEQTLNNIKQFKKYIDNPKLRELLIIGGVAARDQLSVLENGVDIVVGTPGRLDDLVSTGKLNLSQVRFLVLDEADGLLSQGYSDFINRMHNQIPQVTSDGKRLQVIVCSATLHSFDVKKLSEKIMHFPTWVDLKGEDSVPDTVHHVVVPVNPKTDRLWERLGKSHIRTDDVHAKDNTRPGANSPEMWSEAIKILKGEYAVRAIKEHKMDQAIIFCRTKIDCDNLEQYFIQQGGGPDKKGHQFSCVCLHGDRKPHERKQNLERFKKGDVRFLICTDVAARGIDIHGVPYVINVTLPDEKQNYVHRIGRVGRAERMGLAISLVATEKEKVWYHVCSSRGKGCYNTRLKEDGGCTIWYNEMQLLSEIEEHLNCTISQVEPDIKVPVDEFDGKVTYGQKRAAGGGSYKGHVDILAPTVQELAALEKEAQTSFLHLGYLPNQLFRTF

Assay [3] addresses T2, Serine/threonine-protein kinase Nek2 (Homo sapiens, UniProt P51955).
T2 sequence (P51955 whole entry): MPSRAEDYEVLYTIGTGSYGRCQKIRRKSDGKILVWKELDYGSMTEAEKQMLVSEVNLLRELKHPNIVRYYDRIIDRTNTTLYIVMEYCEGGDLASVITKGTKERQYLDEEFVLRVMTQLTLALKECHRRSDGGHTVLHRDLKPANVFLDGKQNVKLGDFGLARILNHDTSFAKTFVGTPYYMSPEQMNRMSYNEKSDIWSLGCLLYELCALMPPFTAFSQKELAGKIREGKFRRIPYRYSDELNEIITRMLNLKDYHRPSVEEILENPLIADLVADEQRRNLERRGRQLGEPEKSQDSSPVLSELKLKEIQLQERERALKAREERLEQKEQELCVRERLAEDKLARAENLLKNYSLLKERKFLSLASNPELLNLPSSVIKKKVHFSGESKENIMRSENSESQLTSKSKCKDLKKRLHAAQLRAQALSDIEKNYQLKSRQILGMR

Another assay has as its target Ephrin type-A receptor 4 (Homo sapiens, UniProt P54764).
In assay [4] the target is T3, Serine/threonine-protein kinase LATS1 (Homo sapiens, UniProt O95835).
T3 sequence (O95835 whole entry): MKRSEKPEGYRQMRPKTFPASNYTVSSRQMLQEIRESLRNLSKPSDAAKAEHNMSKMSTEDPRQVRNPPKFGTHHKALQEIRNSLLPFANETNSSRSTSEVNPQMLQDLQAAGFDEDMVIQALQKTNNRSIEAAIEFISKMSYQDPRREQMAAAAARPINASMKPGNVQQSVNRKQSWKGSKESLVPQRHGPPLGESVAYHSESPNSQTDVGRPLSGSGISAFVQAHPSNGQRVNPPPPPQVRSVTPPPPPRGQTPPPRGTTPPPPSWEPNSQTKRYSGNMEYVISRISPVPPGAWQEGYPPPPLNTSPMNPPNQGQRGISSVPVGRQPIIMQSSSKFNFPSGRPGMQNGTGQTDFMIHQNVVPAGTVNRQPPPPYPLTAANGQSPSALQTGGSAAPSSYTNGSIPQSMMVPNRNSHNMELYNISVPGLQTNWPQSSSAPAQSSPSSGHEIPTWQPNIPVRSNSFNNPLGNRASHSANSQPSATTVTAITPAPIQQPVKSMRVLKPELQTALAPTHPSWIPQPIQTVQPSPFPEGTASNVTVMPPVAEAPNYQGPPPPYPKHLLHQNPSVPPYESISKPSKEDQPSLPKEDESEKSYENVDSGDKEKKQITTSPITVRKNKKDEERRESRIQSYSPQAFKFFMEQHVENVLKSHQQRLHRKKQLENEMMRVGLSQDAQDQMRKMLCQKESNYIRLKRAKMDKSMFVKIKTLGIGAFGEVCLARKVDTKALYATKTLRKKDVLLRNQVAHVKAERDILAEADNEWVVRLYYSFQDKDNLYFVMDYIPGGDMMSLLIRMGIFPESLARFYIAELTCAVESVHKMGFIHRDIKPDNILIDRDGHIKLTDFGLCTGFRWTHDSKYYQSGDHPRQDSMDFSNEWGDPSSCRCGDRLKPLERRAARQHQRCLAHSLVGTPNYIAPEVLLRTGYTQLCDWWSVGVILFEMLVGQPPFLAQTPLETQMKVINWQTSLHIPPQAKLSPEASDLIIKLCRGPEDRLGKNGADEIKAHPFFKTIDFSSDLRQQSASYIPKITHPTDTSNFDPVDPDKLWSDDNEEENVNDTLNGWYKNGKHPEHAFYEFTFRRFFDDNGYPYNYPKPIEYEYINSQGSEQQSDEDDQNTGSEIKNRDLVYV

Assay [5] deals with Ribosomal protein S6 kinase alpha-6 (Homo sapiens, UniProt Q9UK32).

Structures can show the parent of a compound that is named as a salt. Calls of active or inactive are those of the source. Rule as the data show it, for most assays here: actives have a measured Kd and inactives only a lower limit.
Also: in the data inactive means no Kd found up to 30 µM.

Ephrin type-A receptor 4, sequence (P54764 whole entry): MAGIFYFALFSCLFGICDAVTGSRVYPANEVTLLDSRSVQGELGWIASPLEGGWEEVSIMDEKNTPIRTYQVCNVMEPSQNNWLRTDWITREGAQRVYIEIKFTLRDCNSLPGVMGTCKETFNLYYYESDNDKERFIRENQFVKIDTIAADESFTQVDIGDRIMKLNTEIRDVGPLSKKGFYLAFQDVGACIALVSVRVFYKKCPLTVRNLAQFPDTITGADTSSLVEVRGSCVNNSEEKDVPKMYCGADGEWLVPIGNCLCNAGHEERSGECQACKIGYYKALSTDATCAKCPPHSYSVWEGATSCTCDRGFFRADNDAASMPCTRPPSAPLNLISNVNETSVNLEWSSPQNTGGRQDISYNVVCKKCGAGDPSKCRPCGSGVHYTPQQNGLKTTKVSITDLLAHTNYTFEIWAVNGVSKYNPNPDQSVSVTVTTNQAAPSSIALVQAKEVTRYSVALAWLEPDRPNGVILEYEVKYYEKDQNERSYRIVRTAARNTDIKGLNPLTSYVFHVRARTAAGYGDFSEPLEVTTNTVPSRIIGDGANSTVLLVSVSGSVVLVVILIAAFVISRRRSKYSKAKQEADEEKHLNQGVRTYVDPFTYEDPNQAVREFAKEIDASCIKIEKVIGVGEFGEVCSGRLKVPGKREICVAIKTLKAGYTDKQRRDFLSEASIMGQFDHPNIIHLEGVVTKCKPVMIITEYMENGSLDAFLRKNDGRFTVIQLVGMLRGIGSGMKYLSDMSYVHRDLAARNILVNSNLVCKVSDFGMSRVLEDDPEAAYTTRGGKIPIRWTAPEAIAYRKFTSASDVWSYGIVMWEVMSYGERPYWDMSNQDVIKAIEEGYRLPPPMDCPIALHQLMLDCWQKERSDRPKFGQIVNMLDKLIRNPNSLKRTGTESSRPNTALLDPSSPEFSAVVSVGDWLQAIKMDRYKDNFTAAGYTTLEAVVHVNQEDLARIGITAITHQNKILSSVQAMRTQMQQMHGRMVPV
Mitogen-activated protein kinase kinase kinase kinase 4, sequence (O95819 whole entry): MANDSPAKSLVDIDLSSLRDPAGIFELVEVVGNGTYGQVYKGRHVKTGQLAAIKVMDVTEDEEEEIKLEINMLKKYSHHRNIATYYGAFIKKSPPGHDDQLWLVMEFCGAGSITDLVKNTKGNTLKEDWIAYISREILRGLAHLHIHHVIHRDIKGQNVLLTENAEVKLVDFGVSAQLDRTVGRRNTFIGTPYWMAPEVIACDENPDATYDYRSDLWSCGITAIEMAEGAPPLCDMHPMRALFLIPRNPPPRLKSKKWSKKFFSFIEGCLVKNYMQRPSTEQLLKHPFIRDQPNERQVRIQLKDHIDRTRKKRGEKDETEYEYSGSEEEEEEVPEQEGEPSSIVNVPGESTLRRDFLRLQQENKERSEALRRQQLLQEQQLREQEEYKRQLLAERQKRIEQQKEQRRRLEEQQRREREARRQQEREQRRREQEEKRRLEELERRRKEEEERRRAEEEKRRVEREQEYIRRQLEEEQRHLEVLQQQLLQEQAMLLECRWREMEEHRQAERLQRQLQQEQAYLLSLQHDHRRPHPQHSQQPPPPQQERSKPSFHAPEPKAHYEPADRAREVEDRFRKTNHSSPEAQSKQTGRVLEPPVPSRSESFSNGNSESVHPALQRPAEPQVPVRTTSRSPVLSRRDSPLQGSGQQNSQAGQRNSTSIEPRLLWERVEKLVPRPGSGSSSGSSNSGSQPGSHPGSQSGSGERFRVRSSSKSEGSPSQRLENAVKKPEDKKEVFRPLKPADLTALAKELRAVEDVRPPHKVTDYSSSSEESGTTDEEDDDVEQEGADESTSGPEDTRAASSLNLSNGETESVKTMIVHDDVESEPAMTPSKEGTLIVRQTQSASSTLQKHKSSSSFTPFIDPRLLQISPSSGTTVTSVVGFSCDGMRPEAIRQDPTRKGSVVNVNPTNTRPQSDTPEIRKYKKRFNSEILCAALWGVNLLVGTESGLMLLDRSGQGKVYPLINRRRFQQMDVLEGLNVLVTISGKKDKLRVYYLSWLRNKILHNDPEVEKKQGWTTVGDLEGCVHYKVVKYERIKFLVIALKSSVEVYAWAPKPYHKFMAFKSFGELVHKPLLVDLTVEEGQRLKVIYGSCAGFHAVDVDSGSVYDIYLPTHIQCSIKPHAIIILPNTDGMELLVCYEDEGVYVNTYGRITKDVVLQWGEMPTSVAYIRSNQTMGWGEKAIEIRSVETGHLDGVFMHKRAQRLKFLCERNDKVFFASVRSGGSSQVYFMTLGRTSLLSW
Ribosomal protein S6 kinase alpha-6, sequence (Q9UK32 whole entry): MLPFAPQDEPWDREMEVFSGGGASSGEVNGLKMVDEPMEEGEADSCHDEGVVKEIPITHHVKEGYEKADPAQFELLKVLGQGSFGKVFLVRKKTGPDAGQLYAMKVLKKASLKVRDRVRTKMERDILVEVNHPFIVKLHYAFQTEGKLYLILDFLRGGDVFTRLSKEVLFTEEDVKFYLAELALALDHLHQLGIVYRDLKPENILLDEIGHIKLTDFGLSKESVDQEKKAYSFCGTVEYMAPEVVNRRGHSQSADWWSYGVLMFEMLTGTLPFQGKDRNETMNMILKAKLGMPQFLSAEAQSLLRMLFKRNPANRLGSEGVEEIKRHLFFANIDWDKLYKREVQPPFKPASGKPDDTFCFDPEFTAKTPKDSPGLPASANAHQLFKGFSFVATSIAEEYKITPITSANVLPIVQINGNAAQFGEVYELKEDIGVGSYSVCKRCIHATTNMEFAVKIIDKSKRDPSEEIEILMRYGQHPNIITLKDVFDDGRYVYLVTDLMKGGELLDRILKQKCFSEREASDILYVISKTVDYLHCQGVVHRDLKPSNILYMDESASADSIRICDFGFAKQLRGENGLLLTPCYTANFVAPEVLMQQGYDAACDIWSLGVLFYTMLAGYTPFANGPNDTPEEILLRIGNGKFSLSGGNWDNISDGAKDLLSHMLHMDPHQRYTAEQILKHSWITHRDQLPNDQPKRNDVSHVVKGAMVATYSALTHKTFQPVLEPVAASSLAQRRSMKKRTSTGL

Usually Kd stands for a measure of binding affinity in units of concentration. As to `Cc1nc(NC(=O)N2CCC[C@H]2C(N)=O)sc1-c1ccnc(C(C)(C)C(F)(F)F)c1` [ALPELISIB], the Kd (in assay [1]; in assay [2]; in assay [3]; at Ephrin type-A receptor 4; in assay [4]; in assay [5]) was > 30 µM (inactive) in each case.

With `Cc1csc(-c2nnc(Nc3ccc(Oc4ncccc4-c4ccnc(N)n4)cc3)c3ccccc23)c1` [AMG-900], the Kd (in assay [1]; in assay [2]; in assay [3]; at Ephrin type-A receptor 4; in assay [4]; in assay [5]) was > 30 µM (inactive) throughout.

Take `C=CC(=O)Nc1cc2c(Nc3ccc(F)c(Cl)c3)ncnc2cc1C#CC(C)(C)N1CCN(C)CC1` [AV-412 FREE BASE]: the Kd (in assay [1]; in assay [2]; in assay [3]; on Ephrin type-A receptor 4; in assay [4]; in assay [5]) was > 30 µM (inactive) in each case.

As for `COc1cc([C@@H]2c3cc4c(cc3[C@H](O)[C@H]3COC(=O)[C@@H]23)OCO4)cc(OC)c1OC` [AXL-1717], the Kd (in assay [1]; in assay [2]; in assay [3]; on Ephrin type-A receptor 4; in assay [4]; in assay [5]) was > 30 µM (inactive) in each case.

For the compound `NC(=O)Nc1cc(-c2cccc(F)c2)sc1C(=O)N[C@H]1CCCNC1` [AZD-7762], the Kd in assay [1] is 0.035 µM (active); in assay [2], > 30 µM (inactive); in assay [3], > 30 µM (inactive); on Ephrin type-A receptor 4 it was > 30 µM (inactive); in assay [4], > 30 µM (inactive); in assay [5] it was 1.51 µM (active).

For the compound `Cc1cc(C(=O)NOCCO)c(Nc2ccc(I)cc2F)n(C)c1=O` [AZD-8330], the Kd (in assay [1]; in assay [2]; in assay [3]; on Ephrin type-A receptor 4; in assay [4]; in assay [5]) was > 30 µM (inactive) each time.

For the compound `Cn1cnc2c(F)c(Nc3ccc(Br)cc3F)c(C(=O)NOCCO)cc21` [BINIMETINIB], the Kd (in assay [1]; in assay [2]; in assay [3]; at Ephrin type-A receptor 4; in assay [4]; in assay [5]) was > 30 µM (inactive) in each case.

Consider `CCn1c(C(=O)N(C2CC2)C2CC2)cc2c3c(ncn3C)c(Nc3cc(C)n(C)n3)nc21` [BMS-911543], for which the Kd (in assay [1]; in assay [2]; in assay [3]; on Ephrin type-A receptor 4; in assay [4]; in assay [5]) was > 30 µM (inactive) throughout.

For `COc1cc2ncnc(Oc3cccc(NC(=O)Nc4cc(C(C)(C)C(F)(F)F)on4)c3)c2cc1OC` [CEP-32496], the Kd (in assay [1]; in assay [2]; in assay [3]; at Ephrin type-A receptor 4; in assay [4]; in assay [5]) was > 30 µM (inactive) each time.

As for `Cc1cc(Nc2ncc(Cl)c(Nc3ccccc3S(=O)(=O)C(C)C)n2)c(OC(C)C)cc1C1CCNCC1` [CERITINIB], the Kd (in assay [1]; in assay [2]; in assay [3]; on Ephrin type-A receptor 4; in assay [4]; in assay [5]) was > 30 µM (inactive) each time.

With `COc1c(OCCCN2CCOCC2)ccc2c1N=C(NC(=O)c1cnc(N)nc1)N1CCN=C21` [COPANLISIB], the Kd (in assay [1]; in assay [2]; in assay [3]; on Ephrin type-A receptor 4; in assay [4]; in assay [5]) was > 30 µM (inactive) in each case.

Consider `COCC(=O)NC/C=C/c1ccc2ncnc(Nc3ccc(Oc4ccc(C)nc4)c(C)c3)c2c1` [CP-724714], for which the Kd (in assay [1]; in assay [2]; in assay [3]; on Ephrin type-A receptor 4; in assay [4]; in assay [5]) was > 30 µM (inactive) each time.

Take `C#Cc1cccc(Nc2ncnc3cc(OC)c(OCCCCCCC(=O)NO)cc23)c1` [CUDC-101]: the Kd (in assay [1]; in assay [2]; in assay [3]; at Ephrin type-A receptor 4; in assay [4]; in assay [5]) was > 30 µM (inactive) throughout.

Regarding `CCS(=O)(=O)N1CCN(c2ccc(Nc3ncc(C(N)=O)c(NC4CC4)n3)cc2)CC1` [Cerdulatinib Hydrochloride], the dissociation constant (Kd) in assay [1] was 3.06 µM (active); in assay [2], > 30 µM (inactive); in assay [3], > 30 µM (inactive); on Ephrin type-A receptor 4 it was > 30 µM (inactive); in assay [4], 0.261 µM (active); in assay [5] it was 0.455 µM (active).

On to `Cc1nc2cc(-n3ncc(C(=O)c4cc5ccccc5[nH]4)c3N)ccc2[nH]1` [FGFR INHIBITOR DEBIO 1347], for which the Kd (in assay [1]; in assay [2]; in assay [3]; at Ephrin type-A receptor 4; in assay [4]; in assay [5]) was > 30 µM (inactive) throughout.

Turning to `O=C(Nc1nc2cccc(-c3ccc(CN4CCS(=O)(=O)CC4)cc3)n2n1)C1CC1` [FILGOTINIB], the Kd (in assay [1]; in assay [2]; in assay [3]; at Ephrin type-A receptor 4; in assay [4]; in assay [5]) was > 30 µM (inactive) throughout.

`Cc1cccc(-c2nn3c(c2-c2ccnc4ccc(C(N)=O)cc24)CCC3)n1` [GALUNISERTIB]: the Kd in assay [1] was 1.69 µM (active); in assay [2] it was > 30 µM (inactive); in assay [3], > 30 µM (inactive); at Ephrin type-A receptor 4, > 30 µM (inactive); in assay [4], > 30 µM (inactive); in assay [5] it was > 30 µM (inactive).
